# Like-named read-outs stand apart in the source and are kept apart here.
# What was measured:
# [1] = tested on: T cells from Lesch Nyhan syndrome patients and Hprt deficient brothers; conditions: cited from earlier work
# [2] = tested on: embryos of C57BL6/J Hprt −/− females mated with wildtype Hprt +/o males; assay type: in vivo; conditions: for Offspring ♀ (Hprt +/−, sensitive) / Offspring ♂ (Hprt −/o, resistant): three i.p. injections of 20 mg/kg in 24 hrs intervals during gestation
# Method: The animals were housed in standard plastic microisolator cages with wood-chip bedding. The room was maintained at 22° C. and 70% humidity and the light cycle was 12 hours. Water and mouse diet No:5015 (PMI Feeds, Inc., St. Louis, Mo.) was supplied ad libitum. All housing and treatment protocols were reviewed and approved by an institutional Animal Care Committee.
# Hprt −/− females (5-8 weeks old) were mated with wildtype males and the presence of vaginal plugs was examined daily. The day when a plug appeared was considered to be day 1 of pregnancy and the male was separated. The pregnant dams were treated with three i.p. injections of 6-thioguanine (20 mg/kg) or in control matings with saline starting […] in 24 hrs intervals. Pregnant mice were examined daily until term. The gender of offsprings was first determined 24 days after delivery and confirmed at the time of weaning (4 weeks of age).
# An experiment was designed to investigate whether one could select against Hprt wildtype embryos with 6-thioguanine. Female mice C57BL6/J Hprt −/− were mated with wildtype Hprt +/o males. Since the Hprt gene is located on the X chromosome the resulting male offspring will be Hprt −/o and therefore resistant to 6-thioguanine (6TG). On the other hand, female offspring will be Hprt +/− and thus sensitive to 6TG. 6TG (Sigma) was injected i.p. in three subsequential doses (20 mg/kg each) in 24 hrs intervals starting on the third day of gestation. Mice were screened two times daily for possible toxic effects.
# [3] = tested on: Hprt +/+ bone marrow of recipient mice; experiment: Bone marrow replacement, Southern blot analysis of Y (donor) DNA; assay type: in vivo, mouse
# Excerpt: The replacement of Hprt positive bone marrow with Hprt deficient bone marrow was examined by Southern blot analysis. Since recipients animals were females and donor bone marrow was of male origin, we have determined the fraction of cells containing chromosome (Y) in hematopoetic organs (bone marrow, spleen, thymus) and peripheral tissue (tail) in recipient animals. The Y chromosome was detected in 6TG treated and control animals.
# Next Applicants tested whether “in vivo selection” without whole body irradiation can lead to complete bone marrow replacement. The wild type recipient mice were pretreated with 6TG (10 mg/kg twice in 48 hrs interval) or with sterile PBS and the Hprt deficient bone marrow was transplanted. The animals in the experimental group were 6TG pretreated followed with the 6TG in vivo selection protocol (described herein above). The control animals (6TG or PBS pretreated) were treated with sterile PBS buffer instead of 6TG. The degree of bone marrow replacement was evaluated by Southern blot analysis in hematopoetic tissues (bone marrow, spleen, thymus) and blood at the end of the 7th week post transplantation.
# Hprt +/+ mice = experiment: Histopathological analysis of mouse tissues after 6TG
# [4] = Hprt +/+, 6TG lethal 50-720 mg/kg, 7 mice
# [5] = Hprt +/+, 6TG sublethal 25 mg/kg, 2 mice
compound,measurement,setting,value
"Nc1nc(S)c2[nH]cnc2n1 [6TG, 2-amino-6-merkaptopurine]",6TG resistance higher than cells from normal individuals,[1]; T cells from Lesch Nyhan syndrome patients,300 fold
same,6TG resistance greater than normal individuals,[1]; T cells of Hprt deficient brothers without signs of the disease,10 fold
same,"Offspring ♀ (Hprt +/−, sensitive)",[2]; Dam 1T,0
same,"Offspring ♂ (Hprt −/o, resistant)",[2]; Dam 1T,4
same,"Offspring ♀ (Hprt +/−, sensitive)",[2]; Dam 2T,0
same,"Offspring ♂ (Hprt −/o, resistant)",[2]; Dam 2T,2
same,toxicity to the dams,"[2]; Hprt −/− dams, three doses 20 mg/kg i.p.",did not cause any apparent toxic symptoms or discomfort to the dams
same,male offspring delivered,[2]; two 6TG treated dams together,6
same,bone marrow replacement,"[3]; 6TG in vivo selection protocol, whether or not irradiation was used, end of 7th week post transplantation",100%
same,engraftment of Hprt deficient bone marrow cells (containing Y chomosome),"[3]; irradiated recipients, 6TG selection in comparison to control animals",significantly increased engraftment
same,"Bone marrow Depletion, severity grade","Hprt +/+ mice; Hprt +/+, 25 mg/kg i.p.",3.5 ± 0.5
same,"Bone marrow Depletion, severity grade","Hprt +/+ mice; Hprt +/+, 50 mg/kg i.p.",4
same,"Bone marrow Necrosis, severity grade","Hprt +/+ mice; Hprt +/+, 50 mg/kg i.p.",3
same,"Gastric epithelium Atrophy, severity grade","Hprt +/+ mice; Hprt +/+, 50 mg/kg i.p.",2
same,"Gastric epithelium Necrosis, severity grade","Hprt +/+ mice; Hprt +/+, 50 mg/kg i.p.",1
same,"Intestinal epithelium Atrophy, severity grade","Hprt +/+ mice; Hprt +/+, 50 mg/kg i.p.",2
same,"Intestinal epithelium Necrosis, severity grade","Hprt +/+ mice; Hprt +/+, 50 mg/kg i.p.",1
same,"Liver Atrophy necrosis, severity grade","Hprt +/+ mice; Hprt +/+, 50 mg/kg i.p.",3
same,"Spleen Lymphoid depletion, severity grade","Hprt +/+ mice; Hprt +/+, 50 mg/kg i.p.",1
same,"Bone marrow Depletion, severity grade","Hprt +/+ mice; Hprt +/+, 100 mg/kg i.p.",4
same,"Bone marrow Necrosis, severity grade","Hprt +/+ mice; Hprt +/+, 100 mg/kg i.p.",3
same,"Gastric epithelium Atrophy, severity grade","Hprt +/+ mice; Hprt +/+, 100 mg/kg i.p.",3
same,"Gastric epithelium Necrosis, severity grade","Hprt +/+ mice; Hprt +/+, 100 mg/kg i.p.",3
same,"Intestinal epithelium Atrophy, severity grade","Hprt +/+ mice; Hprt +/+, 100 mg/kg i.p.",3
same,"Intestinal epithelium Necrosis, severity grade","Hprt +/+ mice; Hprt +/+, 100 mg/kg i.p.",3
same,"Liver Atrophy necrosis, severity grade","Hprt +/+ mice; Hprt +/+, 100 mg/kg i.p.",2
same,"Spleen Lymphoid depletion, severity grade","Hprt +/+ mice; Hprt +/+, 100 mg/kg i.p.",1
same,"Spleen Necrosis, severity grade","Hprt +/+ mice; Hprt +/+, 100 mg/kg i.p.",2
same,"Bone marrow Depletion, severity grade","Hprt +/+ mice; Hprt +/+, 150 mg/kg i.p.",4
same,"Bone marrow Necrosis, severity grade","Hprt +/+ mice; Hprt +/+, 150 mg/kg i.p.",4
same,"Gastric epithelium Atrophy, severity grade","Hprt +/+ mice; Hprt +/+, 150 mg/kg i.p.",1
same,"Gastric epithelium Necrosis, severity grade","Hprt +/+ mice; Hprt +/+, 150 mg/kg i.p.",1
same,"Intestinal epithelium Atrophy, severity grade","Hprt +/+ mice; Hprt +/+, 150 mg/kg i.p.",1
same,"Intestinal epithelium Necrosis, severity grade","Hprt +/+ mice; Hprt +/+, 150 mg/kg i.p.",1
same,"Liver Atrophy necrosis, severity grade","Hprt +/+ mice; Hprt +/+, 150 mg/kg i.p.",2
same,"Liver Centrilobular hypertrophy, severity grade","Hprt +/+ mice; Hprt +/+, 150 mg/kg i.p.",2
same,"Spleen Lymphoid depletion, severity grade","Hprt +/+ mice; Hprt +/+, 150 mg/kg i.p.",2
same,"Spleen Necrosis, severity grade","Hprt +/+ mice; Hprt +/+, 150 mg/kg i.p.",2
same,"Bone marrow Depletion, severity grade","Hprt +/+ mice; Hprt +/+, 225 mg/kg i.p.",3
same,"Bone marrow Necrosis, severity grade","Hprt +/+ mice; Hprt +/+, 225 mg/kg i.p.",3
same,"Gastric epithelium Atrophy, severity grade","Hprt +/+ mice; Hprt +/+, 225 mg/kg i.p.",1
same,"Gastric epithelium Necrosis, severity grade","Hprt +/+ mice; Hprt +/+, 225 mg/kg i.p.",1
same,"Intestinal epithelium Atrophy, severity grade","Hprt +/+ mice; Hprt +/+, 225 mg/kg i.p.",1
same,"Intestinal epithelium Necrosis, severity grade","Hprt +/+ mice; Hprt +/+, 225 mg/kg i.p.",1
same,"Liver Atrophy necrosis, severity grade","Hprt +/+ mice; Hprt +/+, 225 mg/kg i.p.",2
same,"Liver Centrilobular hypertrophy, severity grade","Hprt +/+ mice; Hprt +/+, 225 mg/kg i.p.",1
same,"Liver Fatty change, severity grade","Hprt +/+ mice; Hprt +/+, 225 mg/kg i.p.",1
same,"Spleen Lymphoid depletion, severity grade","Hprt +/+ mice; Hprt +/+, 225 mg/kg i.p.",3
same,"Spleen Necrosis, severity grade","Hprt +/+ mice; Hprt +/+, 225 mg/kg i.p.",4
same,"Bone marrow Depletion, severity grade","Hprt +/+ mice; Hprt +/+, 338 mg/kg i.p.",4
same,"Bone marrow Necrosis, severity grade","Hprt +/+ mice; Hprt +/+, 338 mg/kg i.p.",3
same,"Gastric epithelium Atrophy, severity grade","Hprt +/+ mice; Hprt +/+, 338 mg/kg i.p.",3
same,"Gastric epithelium Necrosis, severity grade","Hprt +/+ mice; Hprt +/+, 338 mg/kg i.p.",3
same,"Intestinal epithelium Atrophy, severity grade","Hprt +/+ mice; Hprt +/+, 338 mg/kg i.p.",3
same,"Intestinal epithelium Necrosis, severity grade","Hprt +/+ mice; Hprt +/+, 338 mg/kg i.p.",3
same,"Liver Atrophy necrosis, severity grade","Hprt +/+ mice; Hprt +/+, 338 mg/kg i.p.",1
same,"Liver Centrilobular hypertrophy, severity grade","Hprt +/+ mice; Hprt +/+, 338 mg/kg i.p.",2
same,"Liver Fatty change, severity grade","Hprt +/+ mice; Hprt +/+, 338 mg/kg i.p.",2
same,"Spleen Lymphoid depletion, severity grade","Hprt +/+ mice; Hprt +/+, 338 mg/kg i.p.",2
same,"Spleen Necrosis, severity grade","Hprt +/+ mice; Hprt +/+, 338 mg/kg i.p.",1
same,"Bone marrow Depletion, severity grade","Hprt +/+ mice; Hprt +/+, 507 mg/kg i.p.",3
same,"Bone marrow Necrosis, severity grade","Hprt +/+ mice; Hprt +/+, 507 mg/kg i.p.",4
same,"Gastric epithelium Atrophy, severity grade","Hprt +/+ mice; Hprt +/+, 507 mg/kg i.p.",1
same,"Gastric epithelium Necrosis, severity grade","Hprt +/+ mice; Hprt +/+, 507 mg/kg i.p.",1
same,"Intestinal epithelium Atrophy, severity grade","Hprt +/+ mice; Hprt +/+, 507 mg/kg i.p.",1
same,"Intestinal epithelium Necrosis, severity grade","Hprt +/+ mice; Hprt +/+, 507 mg/kg i.p.",1
same,"Liver Atrophy necrosis, severity grade","Hprt +/+ mice; Hprt +/+, 507 mg/kg i.p.",1
same,"Liver Centrilobular hypertrophy, severity grade","Hprt +/+ mice; Hprt +/+, 507 mg/kg i.p.",1
same,"Liver Fatty change, severity grade","Hprt +/+ mice; Hprt +/+, 507 mg/kg i.p.",2
same,"Spleen Lymphoid depletion, severity grade","Hprt +/+ mice; Hprt +/+, 507 mg/kg i.p.",1
same,"Spleen Necrosis, severity grade","Hprt +/+ mice; Hprt +/+, 507 mg/kg i.p.",2
same,"Bone marrow Depletion, severity grade","Hprt +/+ mice; Hprt +/+, 720 mg/kg i.p.",4
same,"Bone marrow Necrosis, severity grade","Hprt +/+ mice; Hprt +/+, 720 mg/kg i.p.",4
same,"Gastric epithelium Atrophy, severity grade","Hprt +/+ mice; Hprt +/+, 720 mg/kg i.p.",1
same,"Gastric epithelium Necrosis, severity grade","Hprt +/+ mice; Hprt +/+, 720 mg/kg i.p.",1
same,"Intestinal epithelium Atrophy, severity grade","Hprt +/+ mice; Hprt +/+, 720 mg/kg i.p.",1
same,"Intestinal epithelium Necrosis, severity grade","Hprt +/+ mice; Hprt +/+, 720 mg/kg i.p.",1
same,"Liver Atrophy necrosis, severity grade","Hprt +/+ mice; Hprt +/+, 720 mg/kg i.p.",2
same,"Liver Centrilobular hypertrophy, severity grade","Hprt +/+ mice; Hprt +/+, 720 mg/kg i.p.",1
same,"Spleen Lymphoid depletion, severity grade","Hprt +/+ mice; Hprt +/+, 720 mg/kg i.p.",3
same,"Spleen Necrosis, severity grade","Hprt +/+ mice; Hprt +/+, 720 mg/kg i.p.",3
same,"Bone marrow Depletion, average of lesion severity grade",Hprt +/+ mice; [4],3.7 ± 0.5
same,"Bone marrow Necrosis, average of lesion severity grade",Hprt +/+ mice; [4],3.4 ± 0.5
same,"Gastric epithelium Atrophy, average of lesion severity grade",Hprt +/+ mice; [4],1.7 ± 0.9
same,"Gastric epithelium Necrosis, average of lesion severity grade",Hprt +/+ mice; [4],1.6 ± 0.9
same,"Intestinal epithelium Atrophy, average of lesion severity grade",Hprt +/+ mice; [4],1.7 ± 0.9
same,"Intestinal epithelium Necrosis, average of lesion severity grade",Hprt +/+ mice; [4],1.6 ± 1.0
same,"Liver Atrophy necrosis, average of lesion severity grade",Hprt +/+ mice; [4],1.9 ± 0.7
same,"Liver Centrilobular hypertrophy, average of lesion severity grade",Hprt +/+ mice; [4],1.0 ± 0.8
same,"Liver Fatty change, average of lesion severity grade",Hprt +/+ mice; [4],0.7 ± 0.9
same,"Spleen Lymphoid depletion, average of lesion severity grade",Hprt +/+ mice; [4],1.9 ± 0.9
same,"Spleen Necrosis, average of lesion severity grade",Hprt +/+ mice; [4],2.0 ± 1.3
same,"Bone marrow Depletion, average of lesion severity grade",Hprt +/+ mice; [5],3.5 ± 0.5
same,"Bone marrow Necrosis, average of lesion severity grade",Hprt +/+ mice; [5],0.5 ± 0.5
same,"Liver Atrophy necrosis, average of lesion severity grade",Hprt +/+ mice; [5],2.5 ± 0.5
same,starting dose of liver lesions (necrosis and atrophy of hepatocytes),Hprt +/+ mice; Hprt wildtype mice,25 mg/kg
same,lowest dose with liver centrilobular hypertrophy,Hprt +/+ mice; wildtype mice,150 mg/kg
same,lowest dose with liver fatty change,Hprt +/+ mice; wildtype mice,225 mg/kg
same,starting dose of atrophy and/or necrosis of gastrointestinal epithelium,Hprt +/+ mice; wildtype mice,50 mg/kg
